Data taken from PMC9960827, “Cloning and Characterization of Trypanosoma congolense and T. vivax Nucleoside Transporters Reveal the Potential of P1-Type Carriers for the Discovery of Broad-Spectrum Nucleoside-Based Therapeutics against Animal African Trypanosomiasis” (International Journal of Molecular Sciences, 2023).
Where two headings read alike, the source gives them in different places. Marks after values point to notes of the source that are not given here.

Key:
L. mexicana Cas9 = experiment: Resazurin drug sensitivity assay, LmexCas9; type: cell-based, Leishmania mexicana; details: Leishmania mexicana, read-out: LmexCas9 EC50
Method in brief: (§1)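 Dose-response data were plotted against a sigmoid equation allowing a variable slope, and the EC50 was read from that fit. Replicates were independent determinations on separate days, at least three per value, then averaged.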

L. mexicana SUPKO+TcoAT1 = experiment: microbe, parasite or virus in culture; type: cell-based, Leishmania mexicana
Method in brief: as §1

L. mexicana SUPKO+TvxNT3 = experiment: microbe, parasite or virus in culture; type: cell-based, Leishmania mexicana
Method in brief: as §1

L. mexicana SUPKO = experiment: microbe, parasite or virus in culture; type: cell-based, Leishmania mexicana
Method in brief: as §1

T. congolense IL3000 [1] = experiment: Alamar Blue (resazurin) assay, T. congolense IL3000; type: cell-based, Trypanosoma congolense; details: Trypanosoma congolense; BSF, resazurin; read-out: T. congolense IL3000 EC50
Protocol: (§2) EC50 values were determined by plotting to an equation for a sigmoid curve with variable slope (GraphPad Prism 8). All values were the average of at least three independent determinations on different days.

T. congolense 6C3 [2] = experiment: microbe, parasite or virus in culture; type: cell-based, Trypanosoma congolense; details: for T. congolense 6C3 RF: resistance factor = EC50 (test strain)/EC50(control strain)
Protocol: as §2

T.b.b. B48 [3] = experiment: Alamar Blue (resazurin) assay, T. b. brucei B48; type: cell-based, Trypanosoma brucei brucei; details: Trypanosoma brucei, read-out: T.b.b. B48 EC50
Protocol: as §2

TcoAT1 [4] = experiment: Uptake of [3H]-pentamidine and [3H]-diminazene in SUPKO+TcoAT1 versus SUPKO; type: cell-based, Trypanosoma congolense; details: 25 nM [3H]-pentamidine or 50 nM [3H]-diminazene, SUPKO+TcoAT1 vs SUPKO
Protocol: Uptake assays using radiolabeled trypanocides and/or nucleosides were carried out as described previously. Briefly, parasite cultures were harvested, washed twice in assay buffer (33 mM HEPES, 98 mM NaCl, 4.6 mM KCl, 0.5 mM CaCl2, 0.07 mM MgSO4, 5.8 mM NaH3PO4, 0.03 mM MgCl2, 23 mM NaHCO3, 14 mM D-glucose, pH 7.3), then resuspended and adjusted to a density of 1 × 10^8 cells/mL in assay buffer. The radiolabeled permeant in the presence or absence of different concentrations of potential inhibitors reconstituted in 100 μL assay buffer was deposited on top of 250 μL oil mix in microcentrifuge tubes; 1 × 10^7 parasites in 100 μL assay buffer were added to the tube and incubated for a pre-determined interval. The reaction was stopped by the addition of 1 mL of a high concentration of ice-cold unlabeled substrate in assay buffer (‘stop solution’) and centrifugation, or by immediate centrifugation at […] as appropriate. The microcentrifuge tubes were flash-frozen, and the bottom of each tube containing the cell pellet was cut off and transferred to a scintillation vial. Cell pellets were lysed in 2% SDS, after which scintillation fluid (Scintlogic U, Lablogic) was added, followed by overnight incubation in the dark. Scintillation was measured in a 300SL (Hidex) scintillation counter (Hidex). […]

[5] = test system: L. mexicana expressing TbAQP2; set-up: method as in PMID 24235095; details: cited from earlier work
[6] = molecular target: T. congolense adenosine transporter; experiment: [3H]-adenosine uptake and its inhibition in T. congolense IL3000 bloodstream forms; type: cell-based, Trypanosoma congolense
Method in brief: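 Bloodstream-form T. congolense IL3000 (1 × 10^7 cells) in HEPES/bicarbonate buffer pH 7.3 took up [3H]-adenosine over a set interval, with or without inhibitor, ending by ice-cold unlabeled substrate stop or centrifugation through oil. Pellet radioactivity gave IC50 by sigmoid fit; Ki followed by Cheng–Prusoff using adenosine Km.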

TcoAT1 [7] = type: cell-based, Trypanosoma congolense
Method in brief: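 Transporter genes were expressed in an L. mexicana line lacking NT1 and NT2 (SUPKO), and 1 × 10^7 cells in HEPES/bicarbonate buffer pH 7.3 took up radiolabeled permeant through an oil layer, with or without inhibitor. Uptake was stopped with ice-cold unlabeled substrate or by centrifugation, and pellets were counted. IC50 against radiolabeled adenosine was converted to Ki by Cheng–Prusoff using the permeant Km.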

[8] = Resazurin toxicity assay on human embryonic kidney cells; type: cell-based; details: human
Protocol: as §2

[9] = test system: human embryonic kidney (HEK) cells; experiment: as above; type: cell-based
Protocol: as §2

BSF T. congolense = experiment: Manual cell count of T. congolense cultures exposed to drug; type: cell-based, Trypanosoma congolense
Protocol: For the direct assessment of test compounds on parasite growth, a manual cell count of cultures grown in the presence or absence of test drugs was carried out to determine the effect of test drugs on the multiplication rate of the parasites as described. The cells were adjusted to the required density in 2 mL of the appropriate medium with or without the drug/compound of interest, in a 24-well plate, followed by incubation under standard conditions. The cells were then manually counted at intervals with a Neubauer cell chamber using a phase-contrast light microscope (Axioscope, Zeiss, Jena, Germany).

T. congolense IL3000 BSF = experiment: Nucleus/kinetoplast configuration (DAPI) of T. congolense exposed to drug; type: cell-based, Trypanosoma congolense; details: 2× or 5× EC50, 8 h
Protocol: To assess the effect of the drug on the cellular morphology and configuration of nuclei and kinetoplasts, treated cells were collected after incubation period, fixed, DAPI-treated and viewed under an Olympus IX71 DeltaVision Core System microscope (Applied Precision, GE) using the SoftWoRx suite 2.0 software (Applied Precision, GE). At least 300 cells were scored per slide for the number of kinetoplasts (K) and nuclei (N) as 1N1K, 1N2K, 2N2K, MKMN (M = many) and ‘others’ (aberrant N/K distribution).

T. congolense IL3000 [10] = test system: T. congolense IL3000; set-up: method as in Hulpia et al. [38]; details: values marked *; ref Hulpia et al. [38]; cited from earlier work
T. congolense 6C3 [11] = test system: T. congolense 6C3; set-up: method as in Hulpia et al. [38]; details: values marked *; ref Hulpia et al. [38]; cited from earlier work
T. vivax = test system: T. vivax; set-up: method as in Mabille et al. [69]; details: added for comparison only; ref Mabille et al. [69]; cited from earlier work
T.b.b. B48 [12] = test system: T.b.b. B48; set-up: method as in Hulpia et al. [38]; details: compound marked *; ref Hulpia et al. [38]; cited from earlier work
T. evansi = test system: T. evansi; set-up: method as in Hulpia et al. [38]; details: compound marked *; ref Hulpia et al. [38]; cited from earlier work
T. equiperdum = test system: T. equiperdum; set-up: method as in Hulpia et al. [38]; details: compound marked *; ref Hulpia et al. [38]; cited from earlier work
[13] = Resistance Factor relative to SUPKO

N=C(N)c1ccc(OCCCCCOc2ccc(C(=N)N)cc2)cc1 [Pentamidine, reference compound]
EC50 (L. mexicana Cas9): 1.43 ± 0.05 µM
EC50 (L. mexicana SUPKO+TcoAT1; Leishmania mexicana, read-out: SUPKO+TcoAT1 EC50): 1.73 ± 0.2 µM
SUPKO+TcoAT1 RF (SUPKO) (L. mexicana SUPKO+TcoAT1; [13]): 1.1
EC50 (L. mexicana SUPKO+TvxNT3; Leishmania mexicana, read-out: SUPKO+TvxNT3 EC50): 2.31 ± 0.18 µM
SUPKO+TvxNT3 RF (SUPKO) (L. mexicana SUPKO+TvxNT3; [13]): 0.77
EC50 (L. mexicana SUPKO; Leishmania mexicana, read-out: SUPKO EC50, resazurin, promastigotes): 1.83 ± 0.29 µM
SUPKO RF (Cas9) (L. mexicana SUPKO; Resistance Factor = EC50(SUPKO)/EC50(Cas9)): 1.28
EC50 (T. congolense IL3000 [1]): 0.55 ± 0.11 µM
EC50 (T. congolense 6C3 [2]; Trypanosoma congolense, read-out: T. congolense 6C3 EC50): 0.44 ± 0.15 µM
T. congolense 6C3 RF (T. congolense 6C3 [2]): 0.79
EC50 (T.b.b. B48 [3]): 0.34 ± 0.06 µM
effect of the expression of TcoAT1 on the uptake of the trypanocide (TcoAT1 [4]): no effect
sensitization upon expression of TbAQP2 [5]: 40 fold

Nc1ncnc2c1c(Cl)cn2[C@@H]1O[C@H](CO)C[C@H]1O [FH8470, 7-chloro-7-deaza-3′-deoxyadenosine]
Ki ([6]; 0.05 µM [3H]-adenosine, 30 s, IC50 converted to Ki, read-out: Ki on the transport of [3H]-adenosine): 17.5 ± 3.4 µM
ΔG0, Gibbs free energy of interaction ([6]; calculated from Km or Ki): -6.48 kcal/mol
Ki (TcoAT1 [7]; 0.05 µM [3H]-adenosine, 10 s, IC50 converted to Ki, read-out: Ki on the transport of [3H]-adenosine): 60.6 ± 10.7 µM
ΔG0 (TcoAT1 [7]; Gibbs free energy of binding, from Km or Ki): -5.76 kcal/mol
T. congolense 6C3 RF (T. congolense 6C3 [2]): 0.53 ^a
EC50 [8]: 12 ± 0.32 µM
SI T. congolense ([9]; selectivity index = EC50 (HEK cells)/EC50 (T. congolense)): 9800
SI T. equiperdum ([9]; selectivity index = EC50 (HEK cells)/EC50 (T. equiperdum)): 21,100
SI T. evansi ([9]; selectivity index = EC50 (HEK cells)/EC50 (T. evansi)): 6830
time to killing of the parasites (BSF T. congolense; 5 × EC50, exposure for 48 h or continuously): ≤ 72 h
time to death of the cells (BSF T. congolense; 15 × EC50, short exposure (8 h), washed out or continuous): ≤ 48 h
reduction of the number of cells with 2N2K configuration (T. congolense IL3000 BSF): 40–50 % of untreated control
EC50 (T. congolense IL3000 [10]): 0.0012 ± 0.0002 µM
EC50 (T. congolense 6C3 [11]): 0.00066 ± 3e-05 µM
EC50 (T. vivax): 0.096 ± 0.082 µM
EC50 (T.b.b. B48 [12]): 0.0068 ± 0.0009 µM
EC50 (T. evansi): 0.0018 ± 0.0002 µM
EC50 (T. equiperdum): 0.00057 ± 8e-05 µM
